Assay results reported in PubChem BioAssay (NCI).
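Five compound concentrations were applied to cells in 96-well plates for 48 hours; endpoints were derived by simple linear interpolation of the resulting dose-response curve. GI50 marks 50% less growth. TGI marks complete inhibition of growth.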

How the values were obtained:
Experiment in all cases: inhibition of tumour cell growth, NCI panel, 48 h
TK-10 renal = tested on: TK-10 renal
SN12C renal = tested on: SN12C renal
786-0 renal = tested on: 786-0 renal
SK-MEL-2 melanoma = tested on: SK-MEL-2 melanoma
HT29 colon = tested on: HT29 colon
SK-OV-3 ovarian = tested on: SK-OV-3 ovarian
RPMI-8226 leukemia = tested on: RPMI-8226 leukemia
SR leukemia = tested on: SR leukemia

| Structure (SMILES) | TGI (TK-10 renal) [µM] | TGI (SN12C renal) [µM] | TGI (786-0 renal) [µM] | TGI (SK-MEL-2 melanoma) [µM] | TGI (HT29 colon) [µM] | TGI (SK-OV-3 ovarian) [µM] | TGI (RPMI-8226 leukemia) [µM] | TGI (SR leukemia) [µM] | GI50 (HT29 colon) [µM] | GI50 (TK-10 renal) [µM] | GI50 (SR leukemia) [µM] | GI50 (SN12C renal) [µM] | GI50 (SK-MEL-2 melanoma) [µM] | GI50 (SK-OV-3 ovarian) [µM] | GI50 (RPMI-8226 leukemia) [µM] |
| --- | --- | --- | --- | --- | --- | --- | --- | --- | --- | --- | --- | --- | --- | --- | --- |
| CN(C)C(=S)S | > 100 | > 100 | > 100 | > 93.8 | > 100 | > 100 | > 78.9 |  |  |  |  |  |  |  |  |
| C=C[C@@H]1C(CO)=CCC2[C@H]1CCC1C(C)(C)C(=O)CC[C@]21C (stereo not given in full) | > 100 | > 100 | > 100 | > 100 | > 100 | > 100 | > 100 | > 100 |  |  |  |  |  |  |  |
| O=C(NCCN1CCOCC1)c1ccc2cc(C(=O)N3CC(CCl)c4ccc([N+](=O)[O-])cc43)[nH]c2c1 (stereo not given) | 36.6 | 52.7 | 38.4 | 32.7 | 24.7 | 40.5 | 9.09 |  |  |  |  |  |  |  |  |
| COc1cc(C2CC(C)(Nc3ccccc3)Oc3cc4c(cc32)OCO4)cc(OC)c1OC (stereo not given) | > 100 | > 100 | > 78.4 | > 29.4 | 0.619 | 25.9 | 50.1 | > 60.7 |  |  |  |  |  |  |  |
| O=C(c1cc2ccccc2cc1O)N1CCCCC1 | > 100 |  | > 100 | 46.5 | > 100 | > 100 | 56.3 | 55.9 |  |  |  |  |  |  |  |
| CCN(C(=S)N[C@@H](Cc1ccccc1)C(=O)N[C@@H](CC(C)C)C(=O)OC)c1ccccc1 | > 100 | > 100 | > 100 | > 100 | > 100 | > 100 | > 100 | 61.6 |  |  |  |  |  |  |  |
| C(=N\NC1=NCCCN1)/c1ccc2ccccc2c1 | 36.8 | 26.6 | 24.2 | 28.2 | 23 | 23.6 | 28.3 |  |  |  |  |  |  |  |  |
| O=c1oc(-c2ccc(O)c(O)c2)cc2cccc(O)c12 | > 49.1 | 46.1 | 85.9 | 69.7 | > 100 | 74.9 | 29.5 |  | 28.1 |  |  |  |  |  |  |
| NNC(=O)c1ccc[n+](CCc2ccccc2)c1 | > 100 | > 100 | > 100 |  | > 100 | > 100 | > 100 |  |  |  |  |  |  |  |  |
| CC1CC[C@@]2(OC1)OC1C[C@H]3[C@@H]4CC[C@H]5CC(OC6OC(CO)C(OC7OC(CO)C(O)C(O)C7OC7OC(CO)C(O)C(O)C7O)C(O)C6O)CCC5(C)[C@H]4CCC3(C)C1[C@@H]2C (stereo not given in full) | 5.36 | 7.42 | 5.44 | 8.05 | 1.86 | 6.04 | 6.96 | 7.95 |  |  |  |  |  |  |  |
| c1ccc2sc(SCSc3nc4ccccc4s3)nc2c1 | > 100 | > 100 | > 100 | > 100 | > 100 |  | > 100 | > 100 |  |  |  |  |  |  |  |
| COc1cc([N+](=O)[O-])c(OC)cc1-c1nc2sc(Cl)cn2c1/C=N/Nc1ccccn1 | > 50 | 36.8 |  | > 50 | > 50 | 16.5 | > 50 | 12.1 | > 50 | 15.6 | 0.0877 | 8.53 | > 50 | 9.11 | 30.1 |
| CCOC(=O)NC(=S)NN(C)C1=NCC(C)(C)S1 | > 100 | > 100 | > 100 | > 100 |  | > 100 | > 100 | > 100 |  |  |  |  |  |  |  |
| COc1cc(NS(C)(=O)=O)ccc1N1Cc2cnc3ccc4[nH]c(C)cc1c4c23 | > 100 |  | 36.5 | > 100 | > 100 | > 100 | 88.2 |  |  |  |  |  |  |  |  |
| O=[N+]([O-])/C(C(Cl)=C(Cl)Cl)=C(\Nc1cccc2cccnc12)SCc1ccccc1 |  | 60.7 | 47.3 | 41 | 48.5 | 43.4 | > 100 |  |  |  |  |  |  |  |  |
| COc1nc(C#CCC(C)O)nc(OC)n1 (stereo not given) | 57.7 | 42.5 |  | 87.3 | > 100 | > 100 |  | > 100 |  |  |  |  |  |  |  |
| CCN(CCO)CC1COc2ccccc2O1 (stereo not given) | > 100 | > 100 | > 100 |  | > 100 | > 100 |  | > 100 |  |  |  |  |  |  |  |
| C=CCn1c(=O)ccn(COCCO)c1=O | > 100 | > 100 |  | > 100 | > 100 |  | > 100 | > 100 |  |  |  |  |  |  |  |
| CCOC(=O)c1c(-c2ccc(OC)cc2)c(C#N)c(=S)n(C2OC(COC(C)=O)C(OC(C)=O)C(OC(C)=O)C2OC(C)=O)c1C (stereo not given) | > 100 | > 100 | > 100 |  | > 100 | > 100 |  | > 100 |  |  |  |  |  |  |  |
| O=C(NCCCN(CCCCN(CCCNC(=O)C(F)(F)F)Cc1ccccc1)Cc1ccccc1)C(F)(F)F | 53.5 | 36.5 | 25.1 |  | 19.2 | 36.1 | 40.5 |  |  |  |  |  |  |  |  |
| c1ccc2c(c1)NC(C1OC3CCCN3C1C1Nc3ccccc3S1)S2 (stereo not given) | > 100 | > 100 | > 100 |  | > 100 | > 100 | 76.3 | > 100 |  |  |  |  |  |  |  |
| O=C1C[C@H](Sc2ccccc2)C2(OCCO2)[C@@H](Sc2ccccc2)C1 | 6.96 | 10.6 | > 30.2 | 26.3 | 3.7 | 24.7 |  | 1.22 |  |  |  |  |  |  |  |
| COc1ccc(CC(O)CN2CCOCC2)cc1 (stereo not given) | > 100 | > 100 | > 100 | > 100 | > 100 |  |  | > 100 |  |  |  |  |  |  |  |
| O=C(N=Nc1cc(Cl)ccc1Cl)NNc1cc(Cl)ccc1Cl |  | 52.5 |  | 51.5 | 37 | 63 | 33.8 | > 100 |  |  |  |  |  |  |  |
| N#CCCN(CCC#N)c1ccc(/C=C2\N=C(c3ccccc3)N(c3ccc(Cl)cc3)C2=O)cc1 | > 100 | > 100 | > 100 | > 100 | > 100 | > 100 | > 100 |  |  |  |  |  |  |  |  |
| O=C1c2cc3c(cc2CC1Br)CCC3 (stereo not given) | 8.77 | 3.22 | 3.47 | 5.2 | 5.78 | 15.9 | 4.45 |  |  |  |  |  |  |  |  |
| O=C1/C(=C\c2cccc(Oc3ccccc3)c2)S(=O)(=O)C(c2ccccc2)N1Cc1ccccc1 (stereo not given) | > 100 | 58.6 | 40.1 | 40.7 |  | > 100 |  | 46.2 |  |  |  |  |  |  |  |
